What was measured:
DRAK2 = DRAK2 (Homo sapiens (Human), UniProt O94768); experiment: DRAK2 kinase activity inhibition (ADP-Glo, MRCL3 peptide substrate); type: biochemical
Experimental: (§1) DRAK1 and DRAK2 recombinant proteins were purchased from SignalChem Inc. To measure the kinase enzyme activity, the ADP-Glo™ kit provided by Promega Inc. was used. Buffer A used in the kinase reaction was composed of 60 mM Tris-Cl (pH 7.5), 30 mM MgCl2 and 0.15% BSA. Just before the experiment, 1 mM DTT was prepared by diluting 1 M solution and added thereto.
(§2) To measure the DRAK1 and DRAK2 activity, the substrate MRCL3 peptide and ATP were mixed with the enzymes. After an appropriate period of time, the reaction product ADP was quantitatively analyzed.
(§3) The buffer solution A was used to make a 3× substrate solution of 3× concentration so that the final concentrations of ATP and MRCL3 peptides were 1 uM, respectively, and 2.5 μl of each solution was dispensed into Optiplate 384 (perkin-elmer) microplate.
(§4) The final concentrations of ATP and MRCL3 peptide were made to be 1 uM respectively by using buffer A, followed by preparing a 3× substrate solution. The prepared substrate solution was distributed in Optiplate 384 (Perkin-Elmer) microplate (2.5 ul/well). Then, the compounds of Examples 1˜39 and the compounds of Comparative Examples 1-6, whose concentrations were tripled by the final concentration were distributed thereto (2.5 ul/well). Lastly, DRAK1 or DRAK2 enzyme solution, properly diluted by using buffer A, was added thereto (2.5 ul/well). Centrifugation was performed at 800 rpm for 1 minute, and then enzyme reaction was induced at 30° C.
(§5) 2 hours later, the enzyme reaction was terminated. To eliminate residual ATP, ADP-Glo™ reagent contained in ADP-Glo™ was added to each well at the concentration of 7.5 ul, which was the same amount as the sum of the previously added reagents, followed by centrifugation at the same RPM and time as the above. Additional reaction was induced at room temperature for 40 minutes. To convert the ADP produced by the kinase activity to ATP, 15 ul of kinase detection buffer was added to each well, followed by centrifugation. Five minutes after the centrifugation was completed, the luminescence value of the reaction product was determined using Envision, and the enzyme activity inhibition effect of the compound was measured. Then, IC50 of each compound was determined using Prism program.
(§6) The compounds of Example 1 and Example 19 were used as the experimental group and the compound of Comparative Example 6 was used as the control.
To evaluate DRAK2 inhibition activity of the compound represented by formula 1 according to the number of n, the experiment was performed with the compounds of Example 1, Example 19, Example 40, Comparative Example 7 and W Comparative Example 8 by the same manner as described in Experimental Example 1, leading to the measurement of IC50 to DRAK2.

DRAK1 = DRAK1 (Homo sapiens (Human), UniProt Q9UEE5); experiment: DRAK1 kinase activity inhibition (ADP-Glo, MRCL3 peptide substrate); type: biochemical
Experimental: as §1, §2, §3, §4, §5, §6

[1] = Table 3, recombinant enzyme, 1 uM ATP, 1 uM MRCL3 peptide, 30° C., 2 hours
[2] = Table 4, Experimental Example 2, DRAK2 selectivity evaluation
[3] = Table 5, Experimental Example 3, according to the number of n

DRAK1, sequence (Q9UEE5 whole entry): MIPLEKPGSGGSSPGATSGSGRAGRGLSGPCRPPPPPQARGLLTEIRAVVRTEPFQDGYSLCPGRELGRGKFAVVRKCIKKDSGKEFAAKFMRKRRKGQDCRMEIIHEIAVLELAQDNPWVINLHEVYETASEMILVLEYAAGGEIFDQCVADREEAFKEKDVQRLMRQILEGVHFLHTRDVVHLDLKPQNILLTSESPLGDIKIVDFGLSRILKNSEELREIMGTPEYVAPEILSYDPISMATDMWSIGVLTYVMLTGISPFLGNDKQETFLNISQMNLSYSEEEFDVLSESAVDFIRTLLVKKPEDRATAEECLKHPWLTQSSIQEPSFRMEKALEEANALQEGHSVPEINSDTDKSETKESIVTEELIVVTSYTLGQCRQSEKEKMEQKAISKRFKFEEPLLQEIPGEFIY
DRAK2, sequence (O94768 whole entry): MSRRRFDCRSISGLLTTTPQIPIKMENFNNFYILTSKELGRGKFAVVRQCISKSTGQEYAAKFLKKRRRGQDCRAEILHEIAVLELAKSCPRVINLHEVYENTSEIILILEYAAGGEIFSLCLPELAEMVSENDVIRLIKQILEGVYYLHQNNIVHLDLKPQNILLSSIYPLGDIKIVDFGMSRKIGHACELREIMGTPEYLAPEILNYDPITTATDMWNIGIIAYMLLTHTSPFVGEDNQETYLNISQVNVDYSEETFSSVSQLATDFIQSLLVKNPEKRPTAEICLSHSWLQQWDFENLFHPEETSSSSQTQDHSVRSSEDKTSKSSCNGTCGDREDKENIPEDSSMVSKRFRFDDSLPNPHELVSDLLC

SMILES	IC50 (DRAK2; [1]) [nM]	further results
NCCCNc1nc(Nc2ccc(Cl)cc2)ncc1F [Comparative Example 1, N4-(3-aminopropyl)-N2-(4-chlorophenyl)-5-fluoropyrimidine-2,4-diamine, reference compound]	300	–
Cc1cnc(Nc2ccc3c(c2)OCCO3)nc1NCCCN [Example 36, N4-(3-aminopropyl)-N2-(2,3-dihydrobenzo[b][1,4]dioxin-6-yl)-5-methylpyrimidine-2,4-diamine]	110	–
Cc1cnc(Nc2ccc3c(c2)CCCC3)nc1NCCCN [Example 30, N4-(3-aminopropyl)-5-methyl-N2-(5,6,7,8-tetrahydronaphthalene-2-yl)pyrimidine-2,4-diamine]	160	–
Cc1cnc(Nc2ccc(Br)c(C(F)(F)F)c2)nc1NCCCN [Example 32, N4-(3-aminopropyl)-N2-(4-bromo-3-(trifluoromethyl)phenyl)-5-methylpyrimidine-2,4-diamine]	1400	–
NCCCNc1nc(Nc2ccc(Cl)cc2)ncc1[N+](=O)[O-] [Comparative Example 5, N4-(3-aminopropyl)-N2-(4-chlorophenyl)-5-nitropyrimidine-2,4-diamine, reference compound]	320	–
NCCNc1nc(Nc2ccc(Cl)cc2)ncc1Cl [Comparative Example 7, N4-(2-aminoethyl)-5-chloro-N2-(4-chlorophenyl)pyrimidine-2,4-diamine, reference compound]	–	IC50 (DRAK2; [3]): 110 nM
Cc1cnc(Nc2ccc(F)cc2)nc1NCCCN [Example 28, N4-(3-aminopropyl)-N2-(4-fluorophenyl)-5-methylpyrimidine-2,4-diamine]	190	–
Cc1cnc(Nc2ccc(S(=O)(=O)c3ccc([N+](=O)[O-])cc3)cc2)nc1NCCCN [Example 34, N4-(3-aminopropyl)-5-methyl-N2-(4-(4-nitrophenylsulfonyl)phenyl)pyrimidine-2,4-diamine]	340	–
COc1cnc(Nc2ccc(Cl)cc2)nc1NCCCN [Comparative Example 3, N4-(3-aminopropyl)-N2-(4-chlorophenyl)-5-methoxypyrimidine-2,4-diamine, reference compound]	870	–
Cc1cnc(Nc2ccc(Cl)cc2)nc1NCCN [Comparative Example 8, N4-(2-aminoethyl)-N2-(4-chlorophenyl)-5-methylpyrimidine-2,4-diamine, reference compound]	–	IC50 (DRAK2; [3]): 140 nM
Cc1cnc(Nc2ccc(Oc3ccccc3)cc2)nc1NCCCN [Example 33, N4-(3-aminopropyl)-5-methyl-N2-(4-phenoxyphenyl)pyrimidine-2,4-diamine]	490	–
Cc1cnc(Nc2ccc(F)c(C(F)(F)F)c2)nc1NCCCN [Example 31, N4-(3-aminopropyl)-N2-(4-fluoro-3-(trifluoromethyl)phenyl)-5-methylpyrimidine-2,4-diamine]	180	–
NCCCNc1ccnc(Nc2ccc(Cl)cc2)n1 [Comparative Example 4, N4-(3-aminopropyl)-N2-(4-chlorophenyl)pyrimidine-2,4-diamine, reference compound]	1100	–
CCCCCCCCc1ccc(Nc2ncc(Cl)c(NCCCN)n2)cc1 [Example 5, N4-(3-aminopropyl)-5-chloro-N2-(4-octylphenyl)pyrimidine-2,4-diamine]	740	–
NCCCNc1nc(Nc2ccc(Cl)cc2)ncc1C(F)(F)F [Comparative Example 2, N4-(3-aminopropyl)-N2-(4-chlorophenyl)-5-(trifluoromethyl)pyrimidine-2,4-diamine, reference compound]	120	–

Further lines, with some results ahead:

IC50 (DRAK2; [1]) [nM]	SMILES	further results
16	NCCCNc1nc(Nc2ccc3c(c2)OCO3)ncc1Cl [Example 20, N4-(3-aminopropyl)-N2-(benzo[d][1,3]dioxol-5-yl)-5-chloropyrimidine-2,4-diamine]	IC50 (DRAK1; [1]): 350 nM
89	Cc1cnc(Nc2ccc(Br)cc2)nc1NCCCN [Example 35, N4-(3-aminopropyl)-N2-(4-bromophenyl)-5-methylpyrimidine-2,4-diamine]	–
27	NCCCNc1nc(Nc2ccc(Cl)cc2)ncc1Br [Comparative Example 6, reference compound]	IC50 (DRAK2; [2]): 27 nM; DRAK2 selectivity (DRAK2 versus DRAK1) (DRAK2; result in words, from Table 4): displayed both DRAK1 and DRAK2 inhibition activity; IC50 (DRAK1; [1]): 40 nM; IC50 (DRAK1; [2]): 40 nM
26	NCCCNc1nc(Nc2ccc(F)c(C(F)(F)F)c2)ncc1Cl [Example 15, N4-(3-aminopropyl)-5-chloro-N2-(4-fluoro-3-(trifluoromethyl)phenyl)pyrimidine-2,4-diamine]	IC50 (DRAK1; [1]): 180 nM
15	NCCCNc1nc(Nc2ccc3c(c2)CCCC3)ncc1Cl [Example 23, N4-(3-aminopropyl)-5-chloro-N2-(5,6,7,8-tetrahydronaphthalene-2-yl)pyrimidine-2,4-diamine]	IC50 (DRAK1; [1]): 160 nM
75	Cc1cnc(Nc2ccc(Cl)c(Cl)c2)nc1NCCCN [Example 39, N4-(3-aminopropyl)-N2-(3,4-dichlorophenyl)-5-methylpyrimidine-2,4-diamine]	–
56	CCCCCCc1ccc(Nc2ncc(Cl)c(NCCCN)n2)cc1 [Example 12, N4-(3-aminopropyl)-5-chloro-N2-(4-hexylphenyl)pyrimidine-2,4-diamine]	IC50 (DRAK1; [1]): 1900 nM
19	NCCCNc1nc(Nc2ccc(C3CCNCC3)cc2)ncc1Cl [Example 26, N4-(3-aminopropyl)-5-chloro-N2-(4-(piperidine-4-yl)phenyl)pyrimidine-2,4-diamine]	–
11	CC(C)c1ccc(Nc2ncc(Cl)c(NCCCN)n2)cc1 [Example 3, N4-(3-aminopropyl)-5-chloro-N2-(4-isopropylphenyl)pyrimidine-2,4-diamine]	IC50 (DRAK1; [1]): 240 nM
26	NCCCNc1nc(Nc2cc(Cl)cc(Cl)c2)ncc1Cl [Example 2, N4-(3-aminopropyl)-5-chloro-N2-(3,5-dichlorophenyl)pyrimidine-2,4-diamine]	–
80	CCCCCc1ccc(Nc2ncc(Cl)c(NCCCN)n2)cc1 [Example 4, N4-(3-aminopropyl)-5-chloro-N2-(4-pentylphenyl)pyrimidine-2,4-diamine]	–
70	NCCCNc1nc(Nc2ccc(F)c(Cl)c2)ncc1Cl [Example 7, N4-(3-aminopropyl)-5-chloro-N2-(3-chloro-4-fluorophenyl)pyrimidine-2,4-diamine]	IC50 (DRAK1; [1]): 200 nM
26	NCCCNc1nc(Nc2ccc(Oc3ccccc3)cc2)ncc1Cl [Example 10, N4-(3-aminopropyl)-5-chloro-N2-(4-phenoxyphenyl)pyrimidine-2,4-diamine]	IC50 (DRAK1; [1]): 180 nM
35	COc1ccc(Nc2ncc(Cl)c(NCCCN)n2)cc1Cl [Example 18, N4-(3-aminopropyl)-5-chloro-N2-(3-chloro-4-methoxyphenyl)pyrimidine-2,4-diamine]	IC50 (DRAK1; [1]): 180 nM
47	NCCCCNc1nc(Nc2ccc(Cl)cc2)ncc1Cl [Example 40, N4-(4-n-aminobutyl)-N2-(4-chlorophenyl)-5-chloropyrimidine-2,4-diamine]	IC50 (DRAK2; [3]): 47 nM; DRAK2 IC50 compared with Comparative Examples 7 and 8 (n is 0) (DRAK2; result in words, from Table 5): significantly lower IC50; IC50 (DRAK1; [1]): 480 nM
98	Cc1ccc(Nc2ncc(C)c(NCCCN)n2)cc1Cl [Example 27, N4-(3-aminopropyl)-N2-(3-chloro-4-methylphenyl)-5-methylpyrimidine-2,4-diamine]	–
35	Cc1cnc(Nc2ccc(F)c(Cl)c2)nc1NCCCN [Example 38, N4-(3-aminopropyl)-N2-(3-chloro-4-fluorophenyl)-5-methylpyrimidine-2,4-diamine]	–
31	NCCCCNc1nc(Nc2cc(Cl)cc(Cl)c2)ncc1Cl [Example 41, N4-(4-n-aminobutyl)-N2-(3,5-dichlorophenyl)-5-chloropyrimidine-2,4-diamine]	–
100	Cc1cnc(Nc2ccc(N3CCNCC3)cc2)nc1NCCCN [Example 29, N4-(3-aminopropyl)-5-methyl-N2-(4-(piperazine-1-yl)phenyl)pyrimidine-2,4-diamine]	–
82	Cc1ccc(Nc2ncc(C)c(NCCCN)n2)cc1C [Example 37, N4-(3-aminopropyl)-N2-(3,4-dimethylphenyl)-5-methylpyrimidine-2,4-diamine]	–
